{"source": "patent US8440641B2", "about": "“Phthalocyanine salt formulations” (Case Western Reserve University, priority 2009, dated 2013)", "assay_type_in_all_cases": "physicochemical", "key": {"[1]": {"assay": "Salt concentration in polar and nonpolar solvents (Table 2)"}, "[2]": {"assay": "Concentration of salt in solution, gel and film", "conditions": "Tween 80 21.6 mg", "source_text": "The identification of water soluble phthalocyanine salts also makes possible the preparation of aqueous gel formulations of phthalocyanine salts. […] These phthalocyanine salt-containing gels provide gel formulations of phthalocyanine salts suitable for topical use. Thin films of the gels can also be dried to form coherent, stable, water-swellable films. These films provide formulations for phthalocyanine salt-containing patches that can be used for topical administration."}, "[3]": {"assay": "Qualitative solubility in representative organic solvents", "conditions": "for solubility in CH2Cl2: CH2Cl2, qualitative; for solubility in dimethylformamide / solubility in ethanol / solubility in hexanes / solubility in toluene: qualitative"}, "[4]": {"assay": "Chemical stability (air, chromatography)", "conditions": "air"}}, "data": [{"molecule": "[HOSiPcOSi(CH3)2(CH2)3NH(CH2)21]^+[OC(O)CHOHCH2C(O)OH]^− [Compound 6]", "values": [{"measurement": "salt concentration, […] aqueous Tween 80", "setting": "[1]; […] aqueous Tween 80", "value": 0.165, "unit": "mM"}, {"measurement": "solubility in aqueous solution", "setting": "[1]; aqueous solution, in words", "value": "show solubility"}, {"measurement": "salt concentration, hexanes", "setting": "[1]; hexanes", "value": 0.0006, "unit": "mM"}, {"measurement": "solubility in hexanes and mineral oil", "setting": "[1]; hexanes, mineral oil (Nujol), in words", "value": "little"}, {"measurement": "salt concentration, mineral oil", "setting": "[1]; mineral oil", "value": 0.0002, "unit": "mM"}, {"measurement": "product conc", "setting": "[2]; film: Pc 4 0.33 mg, HEC 118 mg", "value": "~0.2", "unit": "%"}, {"measurement": "product conc", "setting": "[2]; gel: Pc 4 0.33 mg, H2O 3.0 mL, HEC 118 mg", "value": "~0.01", "unit": "%"}, {"measurement": "product conc", "setting": "[2]; solution: Pc 4 0.33 mg, H2O 3.0 mL", "value": 0.11, "unit": "mg/mL"}, {"measurement": "solubility in CH2Cl2", "setting": "[3]", "value": "soluble"}, {"measurement": "solubility in dimethylformamide", "setting": "[3]", "value": "soluble"}, {"measurement": "solubility in ethanol", "setting": "[3]", "value": "soluble"}, {"measurement": "solubility in hexanes", "setting": "[3]", "value": "insoluble"}, {"measurement": "solubility in toluene", "setting": "[3]", "value": "moderately soluble"}]}, {"molecule": "[ClSiPcOSi(CH3)2(CH2)3NH(CH3)2]^+Cl^− [Compound 28]", "values": [{"measurement": "time of hydrolysis by air to Pc 4", "setting": "[4]", "value": "≤ 30", "unit": "min"}, {"measurement": "solubility in CH2Cl2", "setting": "[3]", "value": "soluble"}, {"measurement": "solubility in dimethylformamide", "setting": "[3]", "value": "soluble"}, {"measurement": "solubility in ethanol", "setting": "[3]", "value": "soluble"}, {"measurement": "solubility in hexanes", "setting": "[3]", "value": "insoluble"}, {"measurement": "solubility in toluene", "setting": "[3]", "value": "moderately soluble"}]}, {"molecule": "[CH3C(O)C(O)OSiPcOSi(CH3)2(CH2)3NH(CH3)2]^+Cl^− [Compound 29]", "values": [{"measurement": "time of hydrolysis by air to Pc 4", "setting": "[4]", "value": "≤ 120", "unit": "min"}, {"measurement": "solubility in CH2Cl2", "setting": "[3]", "value": "soluble"}, {"measurement": "solubility in dimethylformamide", "setting": "[3]", "value": "soluble"}, {"measurement": "solubility in ethanol", "setting": "[3]", "value": "soluble"}, {"measurement": "solubility in hexanes", "setting": "[3]", "value": "insoluble"}, {"measurement": "solubility in toluene", "setting": "[3]", "value": "moderately soluble"}]}, {"molecule": "CC(=O)O[Si-2]123(O[Si](C)(C)CCCN(C)C)n4c5c6ccccc6c4N=C4c6ccccc6C(=[N+]41)N=c1c4ccccc4c(n12)=NC1=[N+]3C(=N5)c2ccccc21", "note": "[Compound 2, CH3C(O)OSiPcOSi(CH3)2(CH2)3N(CH3)2]", "values": [{"measurement": "stability in air", "setting": "[4]", "value": "stable"}, {"measurement": "solubility in CH2Cl2", "setting": "[3]", "value": "soluble"}, {"measurement": "solubility in dimethylformamide", "setting": "[3]", "value": "soluble"}, {"measurement": "solubility in ethanol", "setting": "[3]", "value": "soluble"}, {"measurement": "solubility in hexanes", "setting": "[3]", "value": "insoluble"}, {"measurement": "solubility in toluene", "setting": "[3]", "value": "moderately soluble"}]}]}
